# Measured values from BindingDB's records for doi:10.1016/j.bmcl.2005.12.040 (Celera, 2006).
# Target: T1, Coagulation factor VII (Homo sapiens, UniProt P08709)
# T1 sequence (P08709 whole entry): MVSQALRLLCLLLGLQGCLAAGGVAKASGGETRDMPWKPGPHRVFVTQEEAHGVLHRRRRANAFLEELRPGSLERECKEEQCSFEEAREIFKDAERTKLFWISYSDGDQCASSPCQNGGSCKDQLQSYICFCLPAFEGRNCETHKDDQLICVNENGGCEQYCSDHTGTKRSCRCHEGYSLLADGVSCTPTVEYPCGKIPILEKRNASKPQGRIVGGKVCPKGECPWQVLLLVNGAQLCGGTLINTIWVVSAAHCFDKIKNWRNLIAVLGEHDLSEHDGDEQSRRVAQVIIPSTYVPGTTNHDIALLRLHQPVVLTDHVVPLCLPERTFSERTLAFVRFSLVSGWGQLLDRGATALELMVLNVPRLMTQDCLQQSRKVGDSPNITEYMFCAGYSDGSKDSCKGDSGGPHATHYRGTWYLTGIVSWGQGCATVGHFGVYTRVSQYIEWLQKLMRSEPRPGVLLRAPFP
# Assay: Enzyme Inhibition Assay
# Description: The enzyme reactions were initiated by the addition of substrate, and the color developed from the release of p-nitroanilide from each chromogenic substrate was monitored at 405 nm using a Thermomax kinetic plate reader (Molecular Devices). […] The apparent Ki values were then calculated according to the Cheng-Prusoff equation: Ki = IC50/1 + [S]/Km.
row,Compound,Ki [nM]
1,"N=C(N)c1ccc2nc(-c3cc(C(CC(=O)O)C(=O)O)cc(-c4ccc(CO)s4)c3O)[nH]c2c1 (stereo not given) [2-[3-(5-carbamimidoyl-1H-1,3-benzodiazol-2-yl)-4-hydroxy-5-[5-(hydroxymethyl)thiophen-2-yl]phenyl]butanedioic acid]",130
2,"N=C(N)c1ccc2nc(-c3cc(C(CC(=O)O)C(=O)O)cc(-c4cccc(C5CCOC(=O)O5)c4)c3O)[nH]c2c1 (stereo not given) [2-[3-(5-carbamimidoyl-1H-1,3-benzodiazol-2-yl)-4-hydroxy-5-[3-(2-oxo-1,3-dioxan-4-yl)phenyl]phenyl]butanedioic acid]",280

# These reach a lower Ki. Values come first.
row,Ki [nM],Compound
1,110,"N=C(N)c1ccc2nc(-c3cc(C(CC(=O)O)C(=O)O)cc(-c4ccc(Cl)s4)c3O)[nH]c2c1 (stereo not given) [2-[3-(5-carbamimidoyl-1H-1,3-benzodiazol-2-yl)-5-(5-chlorothiophen-2-yl)-4-hydroxyphenyl]butanedioic acid]"
2,64,"CSc1ccccc1-c1cc(C(CC(=O)O)C(=O)O)cc(-c2nc3ccc(C(=N)N)cc3[nH]2)c1O (stereo not given) [2-[3-(5-carbamimidoyl-1H-1,3-benzodiazol-2-yl)-4-hydroxy-5-[2-(methylsulfanyl)phenyl]phenyl]butanedioic acid]"
3,54,"CC(=O)N(c1cccc(C)c1)c1cc(C(CC(=O)O)C(=O)O)cc(-c2nc3ccc(C(=N)N)cc3[nH]2)c1O (stereo not given) [2-[3-(5-carbamimidoyl-1H-1,3-benzodiazol-2-yl)-4-hydroxy-5-[N-(3-methylphenyl)acetamido]phenyl]butanedioic acid]"
